Data taken from patent US20240067631A1, “PYRAZOLE DERIVATIVES USEFUL AS NAMPT MODULATORS” (Cytokinetics, Inc., priority 2020, published 2024).

Molecular target: human NAMPT (Homo sapiens (Human), UniProt P43490)
Assay: Human recombinant enzyme assay (NMN fluorescence biochemical assay)
Details: 6 nM human NAMPT, 60 min; for AC1.4 Human: concentration of compound that generates 40% higher activity over basal; for EC50: concentration that gives half-maximal activation
Procedure, shortened: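 Recombinant human NAMPT (6 nM) with 2.5 mM ATP, […] PRPP and […] nicotinamide in HEPES pH 7.2 with DTT, CHAPS, NaCl, MgCl2; 60 min at ambient temperature. NMN derivatised with acetophenone/KOH/formic acid, fluorescence read at 355/460 nm. AC1.4 (40% above basal) and EC50 reported.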

Sequence of human NAMPT (P43490 whole entry): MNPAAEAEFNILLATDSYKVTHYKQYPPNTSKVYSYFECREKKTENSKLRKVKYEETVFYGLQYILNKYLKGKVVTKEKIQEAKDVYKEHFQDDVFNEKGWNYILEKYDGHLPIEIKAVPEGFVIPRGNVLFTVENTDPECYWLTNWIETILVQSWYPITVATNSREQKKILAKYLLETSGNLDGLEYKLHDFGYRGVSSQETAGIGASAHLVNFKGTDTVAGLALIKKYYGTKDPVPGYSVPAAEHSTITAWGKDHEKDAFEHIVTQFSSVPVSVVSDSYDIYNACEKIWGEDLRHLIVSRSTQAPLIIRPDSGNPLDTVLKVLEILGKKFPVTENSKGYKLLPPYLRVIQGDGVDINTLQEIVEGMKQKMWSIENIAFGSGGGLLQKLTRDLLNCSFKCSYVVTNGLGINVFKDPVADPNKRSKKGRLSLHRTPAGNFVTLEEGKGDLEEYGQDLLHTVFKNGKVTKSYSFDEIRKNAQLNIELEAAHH

Row | Compound | AC1.4 Human | EC50
1 | CCCN(CCc1cn[nH]c1)c1nc(C(N)=O)nc(C)c1C [Compound 106, 4-((2-(1H-pyrazol-4-yl)ethyl)(propyl)amino)-5,6-dimethylpyrimidine-2-carboxamide] | 1.7115 µM | 32.7 µM
2 | Cc1nc(C(=O)NC(C)c2ncco2)nc(NCCc2cn[nH]c2)c1C (stereo not shown) [Compound 108, 4-((2-(1H-pyrazol-4-yl)ethyl)amino)-5,6-dimethyl-N-(1-(oxazol-2-yl)ethyl)pyrimidine-2-carboxamide] | 1.7855 µM | 18.1 µM
3 | Cc1nc(C(=O)N[C@H](C)c2cncc(F)c2)nc(NCCc2cn[nH]c2)c1C [Compound 109, (R)-4-((2-(1H-pyrazol-4-yl)ethyl)amino)-N-(1-(5-fluoropyridin-3-yl)ethyl)-5,6-dimethylpyrimidine-2-carboxamide] | 1.933 µM | 11.2 µM
4 | Cc1nc(C(=O)NC(C)c2ccncc2F)nc(NCCc2cn[nH]c2)c1C (stereo not shown) [Compound 110, 4-((2-(1H-pyrazol-4-yl)ethyl)amino)-N-(1-(3-fluoropyridin-4-yl)ethyl)-5,6-dimethylpyrimidine-2-carboxamide] | 1.9815 µM | 16.2 µM
5 | Cc1nc(C(=O)NCC(F)(F)c2ccccc2)nc(NCCc2cn[nH]c2)c1C [Compound 111, 4-((2-(1H-pyrazol-4-yl)ethyl)amino)-N-(2,2-difluoro-2-phenylethyl)-5,6-dimethylpyrimidine-2-carboxamide] | 1.9995 µM | 18.5 µM
6 | Cc1nc(C(=O)N[C@H](C)c2cc3ccccc3o2)nc(NCCc2cn[nH]c2)c1C [Compound 112, (R)-4-((2-(1H-pyrazol-4-yl)ethyl)amino)-N-(1-(benzofuran-2-yl)ethyl)-5,6-dimethylpyrimidine-2-carboxamide] | 2.084 µM | 2.97 µM
7 | Cc1nc(C(=O)NCCc2ccncc2F)nc(NCCc2cn[nH]c2)c1C [Compound 113, 4-((2-(1H-pyrazol-4-yl)ethyl)amino)-N-(2-(3-fluoropyridin-4-yl)ethyl)-5,6-dimethylpyrimidine-2-carboxamide] | 2.084 µM | 18.3 µM
8 | Cc1nc(C(=O)NC2(c3ccccc3)COC2)nc(NCCc2cn[nH]c2)c1C [Compound 114, 4-((2-(1H-pyrazol-4-yl)ethyl)amino)-5,6-dimethyl-N-(3-phenyloxetan-3-yl)pyrimidine-2-carboxamide] | 2.1125 µM | 23.1 µM
9 | Cc1nc(C(=O)Nc2cc(F)cc(F)c2)nc(NCCc2cn[nH]c2)c1C [Compound 117, 4-((2-(1H-pyrazol-4-yl)ethyl)amino)-N-(3,5-difluorophenyl)-5,6-dimethylpyrimidine-2-carboxamide] | 2.2385 µM | 47.6 µM
10 | Cc1nc(C(=O)N[C@H](C)c2ccc(F)cn2)nc(NCCc2cn[nH]c2)c1C [Compound 118, (R)-4-((2-(1H-pyrazol-4-yl)ethyl)amino)-N-(1-(5-fluoropyridin-2-yl)ethyl)-5,6-dimethylpyrimidine-2-carboxamide] | 2.384 µM | 11.8 µM
11 | Cc1nc(C(=O)NCc2ncccc2F)nc(NCCc2cn[nH]c2)c1C [Compound 120, 4-((2-(1H-pyrazol-4-yl)ethyl)amino)-N-((3-fluoropyridin-2-yl)methyl)-5,6-dimethylpyrimidine-2-carboxamide] | 2.443 µM | 15.2 µM
12 | Cc1nc(C(=O)NC(C)(C)c2cccnc2)nc(NCCc2cn[nH]c2)c1C [Compound 121, 4-((2-(1H-pyrazol-4-yl)ethyl)amino)-5,6-dimethyl-N-(2-(pyridin-3-yl)propan-2-yl)pyrimidine-2-carboxamide] | 2.5075 µM | 22.1 µM
13 | Cc1nc(C(=O)NCC(O)(c2ccccc2)C(F)(F)F)nc(NCCc2cn[nH]c2)c1C (stereo not shown) [Compound 122, 4-((2-(1H-pyrazol-4-yl)ethyl)amino)-5,6-dimethyl-N-(3,3,3-trifluoro-2-hydroxy-2-phenylpropyl)pyrimidine-2-carboxamide] | 2.574 µM | 16.7 µM
14 | COc1cccnc1[C@@H](C)NC(=O)c1nc(C)c(C)c(NCCc2cn[nH]c2)n1 [Compound 124, (R)-4-((2-(1H-pyrazol-4-yl)ethyl)amino)-N-(1-(3-methoxypyridin-2-yl)ethyl)-5,6-dimethylpyrimidine-2-carboxamide] | 2.6905 µM | 12 µM
15 | Cc1nc(C(=O)N[C@H](C)c2cccnc2)nc(NCCc2cn[nH]c2)c1C [Compound 127, (R)-4-((2-(1H-pyrazol-4-yl)ethyl)amino)-5,6-dimethyl-N-(1-(pyridin-3-yl)ethyl)pyrimidine-2-carboxamide] | 32.9385 µM | 60 µM

Further lines, results first:

Row | AC1.4 Human | EC50 | Compound
16 | 2.339 µM | 14 µM | CCC1(O)CN(C(=O)c2nc(C)c(C)c(NCCc3cn[nH]c3)n2)C1 [Compound 107, (4-((2-(1H-pyrazol-4-yl)ethyl)amino)-5,6-dimethylpyrimidin-2-yl)(3-ethyl-3-hydroxyazetidin-1-yl)methanone]
17 | 2.136 µM | 10.7 µM | Cc1nc(C(=O)N2CCC2c2cccc(F)c2)nc(NCCc2cn[nH]c2)c1C (stereo not shown) [Compound 115, (4-((2-(1H-pyrazol-4-yl)ethyl)amino)-5,6-dimethylpyrimidin-2-yl)(2-(3-fluorophenyl)azetidin-1-yl)methanone]
18 | 2.9705 µM | 29.6 µM | Cc1nc(C(=O)N[C@H](C)C2CCCCC2)nc(NCCc2cn[nH]c2)c1C [Compound 116, (R)-4-((2-(1H-pyrazol-4-yl)ethyl)amino)-N-(1-cyclohexylethyl)-5,6-dimethylpyrimidine-2-carboxamide]
19 | 32.854 µM | 47.2 µM | Cc1nc(C(=O)N2CCC(C(F)(F)F)CC2)nc(NCCc2cn[nH]c2)c1C [Compound 119, (4-((2-(1H-pyrazol-4-yl)ethyl)amino)-5,6-dimethylpyrimidin-2-yl)(4-(trifluoromethyl)piperidin-1-yl)methanone]
20 | 2.581 µM | 26.4 µM | Cc1nc(C(=O)N2CC3(CCC3)C2)nc(NCCc2cn[nH]c2)c1C [Compound 123, (4-((2-(1H-pyrazol-4-yl)ethyl)amino)-5,6-dimethylpyrimidin-2-yl)(2-azaspiro[3.3]heptan-2-yl)methanone]
21 | 4.313 µM | 22 µM | Cc1nc(C(=O)N2CC(C)(O)C2)nc(NCCc2cn[nH]c2)c1C [Compound 125, (4-((2-(1H-pyrazol-4-yl)ethyl)amino)-5,6-dimethylpyrimidin-2-yl)(3-hydroxy-3-methylazetidin-1-yl)methanone]
22 | 3.1455 µM | 13.4 µM | Cc1nc(C(=O)N2CCC[C@@H]2c2ccccn2)nc(NCCc2cn[nH]c2)c1C [Compound 126, (R)-(4-((2-(1H-pyrazol-4-yl)ethyl)amino)-5,6-dimethylpyrimidin-2-yl)(2-(pyridin-2-yl)pyrrolidin-1-yl)methanone]
23 | 3.235 µM | 28 µM | Cc1nc(C(=O)NCC(O)C(F)(F)F)nc(NCCc2cn[nH]c2)c1C (stereo not shown) [Compound 128, 4-((2-(1H-pyrazol-4-yl)ethyl)amino)-5,6-dimethyl-N-(3,3,3-trifluoro-2-hydroxypropyl)pyrimidine-2-carboxamide]
